Test results from patent US9308214B2, “Method for moderately increasing the proton conductivity of biological membranes with the aid of mitochondria-targeted delocalized cations” (MITOTECH S.A., priority 2008, dated 2016).

Columns and labels:
[1] = Protonophore activity on black membrane model (diffusion potential on lipid bilayer); conditions: C12-TPP 1 μM in both compartments; ΔpH=1 by KOH; palmitic acid 1 mg/ml in membrane vs absent; pH 7.5
Method: To test penetrating ability of mitochondria-targeted compounds of structure (I), a method based on the ability of ions to penetrate through the bilayer phospholipid membrane moving along concentration gradient was used. The two chambers filled with an aqueous solution are separated by the bilayer membrane, the compound tested is added to one of the chambers. If a charged compound is capable of penetrating through the bilayer membrane, fast diffusion of the compound from the chamber with its high concentration to the chamber with its low concentration occurs, thus difference in the potentials is formed on the membrane. For ions carrying one charge and capable of passive penetrating through the membrane, the 10-fold concentration gradient allows to produce the potential of 60 mV (according to the Nernst equation).
This method was used in various studies on the ability of ions to penetrate through a bilipid membrane and is described in Starkov, et al. (1997) Biochem. Biophys. Acta, 1318:159-172. With this method, C12-TPP (compound of structure (I)) was tested.
Experiments were carried out in a Teflon cuvette having two compartments, and in a 0.6-mm hole between the two compartments the membrane was formed. Medium contained 50 mM Tris-HCl, 100 mM KCl, pH=7.5. ΔpH=1 was created by adding KOH to one of the cuvette compartments. […]

[2] = tested on: yeast Saccharomyces cerevisiae; experiment: Programmed death in yeast induced by amiodarone (colony survival); format: cell-based; conditions: 80 μM amiodarone; for survival of yeast cells (protective effect, in words): TPP tested from 100 nM to 400 nM; for survival of yeast cells: 1 hr at 30° C., survival without compound 2 percent, 3 independent experiments, p below 0.05
Text: Amiodarone (a calcium channel blocker) causes the death of the yeast Saccharomyces cerevisiae which by a number of features resembles apoptosis in higher eukaryotes. In the cells, amiodarone induces activation of a cascade of events leading to formation of reactive oxygen species and subsequent cell death. […] A source of formation of reactive oxygen species induced by amiodarone is a hyperpolarized mitochondrium.
The following compounds of structure (I) (SKQ1, SKQ3, and C12TPP) were selected for this study. […] Then a compound of structure (I) or mock and 80 μM amiodarone were added to the cell suspension. Cells were incubated for 1 hr at 30° C. and afterwards transferred to solid YPD medium containing 2% bactoagar. The number of colonies was counted after 2 days of incubation on solid medium. 100% survival corresponds to the number of colonies from zero time-point transferred to solid medium prior to addition of amiodarone.

[3] = Fluorescence correlation spectroscopy of SkQR1 micelles in aqueous solution with fatty acid (stearate); format: physicochemical
Method: Fluorescence correlation spectroscopy (FCS) is often used to study micellization of surfactants. In one report (Lu, et al. (2006) Analytica Chimica Acta, 556:216-225), R18, i.e., rhodamine with covalently attached fat tail was used as a marker. R18 itself forms large and poorly fluorescent aggregates in aqueous solution resulting in a small number of particles in the confocal volume (N) and a small fluorescence signal. When a detergent was added at a concentration above its CMC (the critical micelle concentration), an increase in total fluorescence and a significant increase in the number of particles N occurred. […] That was associated with lower diffusion coefficient of detergent micelles as compared to the R18 aggregates.
FIGS. 6A and B show the effect of a fatty acid (stearate) on the autocorrelation function of SkQR1 in water. […] For example, the number of particles in the confocal volume sharply increases. The constant of micelle formation for stearate is about 0.3 mM. In this case, fragmentation of the SkQR1 aggregates induced by such low concentrations of the fatty acid occurs. This fragmentation decreases the degree of the self-quenching of fluorescence that increases the total signal. […] The constant of micelle formation for anionic surfactants decreases under the influence of cationic surfactants or polymers. In that case, the total fluorescence signal was 141 kHz. […] The total fluorescence signal was 63 kHz that points to the beginning of the self-quenching of the dye in the micelles.
The fluctuations of the fluorescence signal in this case have no diffusion component yet. This process may be the output/input of SkQR1 molecules from water into micelles that can lead to fluctuations of the fluorescence due to the different quantum yield of fluorescence of the dye in polar and non-polar environments (Zettl, et al. (2005) J. Phys. Chem. B. 109:13397-13401).

CCCCCCCCCCCC[P+](c1ccccc1)(c1ccccc1)c1ccccc1 [C12-TPP, dodecyl triphenylphosphonium]
diffusion potential (ΔΨ) in response to ΔpH creation [1]: presence of a fatty acid in the membrane facilitates an increase in diffusion potential | survival of yeast cells (protective effect, in words) [2]: even more effective than the tested antioxidants | optimum concentration of the protective effect ([2]; pronounced concentration dependence): 200 nM

COc1c(O)c(C)c(CCCCCCCCCC[P+](c2ccccc2)(c2ccccc2)c2ccccc2)c(O)c1OC [MitoQ]
survival of yeast cells [2]: 8%

Cc1c(O)cc(CCCCCCCCCC[P+](c2ccccc2)(c2ccccc2)c2ccccc2)c(O)c1C [SkQ1]
survival of yeast cells (protective effect, in words) [2]: significantly increase the survival

Cc1c(C)c(O)c(CCCCCCCCCC[P+](c2ccccc2)(c2ccccc2)c2ccccc2)c(C)c1O [SkQ3]
survival of yeast cells (protective effect, in words) [2]: significantly increase the survival

CC/N=c1/cc2oc3cc(NCC)c(C)cc3c(-c3ccccc3C(=O)OCCCCCCCCCCC3=CC(=O)C(C)=C(C)C3=O)c-2cc1C [SkQR1]
fluorescence signal from the sample ([3]; 1.5 μg/ml (about 5 μM) stearate): 67 kHz | aggregation state in aqueous solution ([3]; aggregates degrade in presence of low concentrations of fatty acids): forms micelles (or large aggregates) in aqueous solution | total fluorescence signal ([3]; further increase in concentration of stearate (above 50 μM)): 63 kHz | fluorescence signal from the sample ([3]; in water, absence of stearate): 44 kHz | total fluorescence signal ([3]; stearate up to 50 μM): 141 kHz | survival of yeast cells [2]: 7%
